The text below walks through data of patent US11851426B2, “Bicyclic amines as CDK2 inhibitors” (Incyte Corporation, priority 2019, dated 2023).

The assay deals with CDK2/Cyclin E1 (Homo sapiens (Human), UniProt P24941). As to the kind of experiment: CDK2/Cyclin E1 HTRF enzyme activity assay. It is filed as biochemical. The settings on record: 1 mM ATP; CDK2/Cyclin E1 0.25 nM; 60 minutes at room temperature. In a few lines:
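HTRF read-out of 4E-BP1 (Thr37/46) peptide phosphorylation (ULight peptide 50 nM) by 0.25 nM baculovirus-made GST-CDK2/FLAG-Cyclin E1, with ATP at 50 μM or 1 mM, 60 min at room temperature, pH 7.5. Eu-anti-phospho antibody with EDTA quench; IC50 fitted by three- or four-parameter dose-response.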
A general note: Time-resolved FRET reads energy transfer from a long-lived donor to a nearby acceptor.
As for `CC(C)Oc1c(-c2cn[nH]c2)ncn2nc(N[C@H]3CCN(S(=O)(=O)CCCN4CCN(C)CC4)C[C@H]3C)nc12` [Example 61, 8-Isopropoxy-N-((3R,4S)-3-methyl-1-((3-(4-methylpiperazin-1-yl)propyl)sulfonyl)piperidin-4-yl)-7-(1H-pyrazol-4-yl)-[1,2,4]triazolo[1,5-c]pyrimidin-2-amine], the IC50 (commonly the midpoint of a concentration-inhibition curve) was at most 20 nM. On to `CCN1CCN(CCCS(=O)(=O)N2CC[C@H](Nc3nc4c(OC(C)C)c(-c5cn[nH]c5)ncn4n3)[C@H](C)C2)CC1` [Example 62, N-((3R,4S)-1-((3-(4-Ethylpiperazin-1-yl)propyl)sulfonyl)-3-methylpiperidin-4-yl)-8-isopropoxy-7-(1H-pyrazol-4-yl)-[1,2,4]triazolo[1,5-c]pyrimidin-2-amine], for which the 50% inhibitory concentration (IC50) was at most 20 nM. In the case of `CC(C)Oc1c(-c2cn[nH]c2)ncn2nc(N[C@H]3CCN(S(=O)(=O)CCCCN4CCOCC4)C[C@H]3C)nc12` [Example 63, 8-Isopropoxy-N-((3R,4S)-3-methyl-1-((4-morpholinobutyl)sulfonyl)piperidin-4-yl)-7-(1H-pyrazol-4-yl)-[1,2,4]triazolo[1,5-c]pyrimidin-2-amine] it was at most 20 nM; in that of `CC(C)Oc1c(-c2cn[nH]c2)ncn2nc(N[C@H]3CCN(S(=O)(=O)CCCCNCC(F)F)C[C@H]3C)nc12` [Example 64, N-((3R,4S)-1-((4-((2,2-Difluoroethyl)amino)butyl)sulfonyl)-3-methylpiperidin-4-yl)-8-isopropoxy-7-(1H-pyrazol-4-yl)-[1,2,4]triazolo[1,5-c]pyrimidin-2-amine], at most 20 nM. The same measure for `CCN(C)CCCCS(=O)(=O)N1CC[C@H](Nc2nc3c(OC(C)C)c(-c4cn[nH]c4)ncn3n2)[C@H](C)C1` [Example 65, N-((3R,4S)-1-((4-(Ethyl(methyl)amino)butyl)sulfonyl)-3-methylpiperidin-4-yl)-8-isopropoxy-7-(1H-pyrazol-4-yl)-[1,2,4]triazolo[1,5-c]pyrimidin-2-amine]: at most 20 nM; for `CC(C)Oc1c(-c2cn[nH]c2)ncn2nc(N[C@H]3CCN(S(=O)(=O)CCCCN(C)C)C[C@H]3C)nc12` [Example 66]: at most 20 nM; for `CC(C)Oc1c(-c2cn[nH]c2)ncn2nc(N[C@H]3CCN(S(=O)(=O)CCCCN4CC[C@@H](C(F)F)C4)C[C@H]3C)nc12` [Example 67, N-((3R,4S)-1-((4-((R)-3-(Difluoromethyl)pyrrolidin-1-yl)butyl)sulfonyl)-3-methylpiperidin-4-yl)-8-isopropoxy-7-(1H-pyrazol-4-yl)-[1,2,4]triazolo[1,5-c]pyrimidin-2-amine]: at most 20 nM. In the case of `CC(C)Oc1c(-c2cn[nH]c2)ccc2nc(N[C@H]3CCN(S(C)(=O)=O)C[C@H]3C)nn12` [Example 68, 5-Isopropoxy-N-((3R,4S)-3-methyl-1-(methylsulfonyl)piperidin-4-yl)-6-(1H-pyrazol-4-yl)-[1,2,4]triazolo[1,5-a]pyridin-2-amine], the IC50 was at most 20 nM. In turn, `C[C@@H]1CN(S(C)(=O)=O)CC[C@@H]1Nc1nc2ccc(-c3cn[nH]c3)c(OC3CCC3)n2n1` [Example 69, 5-Cyclobutoxy-N-((3R,4S)-3-methyl-1-(methylsulfonyl)piperidin-4-yl)-6-(1H-pyrazol-4-yl)-[1,2,4]triazolo[1,5-a]pyridin-2-amine] gave an IC50 of at most 20 nM.

`CC(C)COc1c(-c2cn[nH]c2)ccc2nc(N[C@H]3CCN(S(C)(=O)=O)C[C@H]3C)nn12` [Example 70, 5-Isobutoxy-N-((3R,4S)-3-methyl-1-(methylsulfonyl)piperidin-4-yl)-6-(1H-pyrazol-4-yl)-[1,2,4]triazolo[1,5-a]pyridin-2-amine] gave an IC50 of at most 20 nM. In the case of `CCCOc1c(-c2cn[nH]c2)ccc2nc(N[C@H]3CCN(S(C)(=O)=O)C[C@H]3C)nn12` [Example 71, N-((3R,4S)-3-Methyl-1-(methylsulfonyl)piperidin-4-yl)-5-propoxy-6-(1H-pyrazol-4-yl)-[1,2,4]triazolo[1,5-a]pyridin-2-amine] it was at most 20 nM.
